US8399502B2, “Analogs of indole-3-carbinol and their use as agents against infection” (priority 2008, dated 2013)
In brackets after ≈: the same amount, converted by molar mass.

Tests used:
Experiment in all cases: microbe, parasite or virus in culture
Assay type in all cases: cell-based
[1] = tested on: Francisella tularensis (FT; Gram-negative); conditions: read-out: MIC FT
[2] = tested on: Bacillus anthracis (BA; Gram-positive); conditions: read-out: MIC BA
[3] = tested on: Yersinia pestis (YP; Gram-negative); conditions: read-out: MIC YP
[4] = tested on: Brucella abortus (BAB; Gram-negative); conditions: read-out: MIC BAB
[5] = tested on: Burkholderia mallei (BM; Gram-negative); conditions: read-out: MIC BM
[6] = tested on: Burkholderia pseudomallei (BP; Gram-negative); conditions: read-out: MIC BP
[7] = tested on: Mycobacteruim tuberculosis H37Rv (H37Rv); conditions: Mycobacterium tuberculosis, read-out: MIC against Tubercle bacillus

SMILES	MIC [1] [µg/mL]	MIC [2] [µg/mL]	MIC [3] [µg/mL]	MIC [4] [µg/mL]	MIC [5] [µg/mL]	MIC [6] [µg/mL]	MIC [7] [µg/mL]
NCCCOc1c2[nH]c3ccc(Cl)cc3c2cc2c1[nH]c1ccc(Cl)cc12	0.25 to 0.5 (≈ 0.628 to 1.26 µM)	0.5 (≈ 1.26 µM)	2 (≈ 5.02 µM)	0.5 (≈ 1.26 µM)	4 (≈ 10 µM)	8 (≈ 20.1 µM)	
CNCCOc1c2[nH]c3ccc(F)cc3c2cc2c1[nH]c1ccc(F)cc12	0.5 (≈ 1.37 µM)	1 (≈ 2.74 µM)	8 (≈ 21.9 µM)	0.5 (≈ 1.37 µM)	4 (≈ 10.9 µM)	16 (≈ 43.8 µM)	
Clc1ccc2[nH]c3c(OCCC4CCNCC4)c4[nH]c5ccc(Cl)cc5c4cc3c2c1	0.5 (≈ 1.11 µM)	≤ 0.25	1 (≈ 2.21 µM)	≤ 0.25	4 (≈ 8.84 µM)	> 8	
OC1CCN(CCOc2c3[nH]c4ccc(F)cc4c3cc3c2[nH]c2ccc(F)cc23)CC1	0.5 (≈ 1.15 µM)	0.5 (≈ 1.15 µM)	4 (≈ 9.19 µM)	1 (≈ 2.3 µM)	8 (≈ 18.4 µM)	> 8	
NCCOc1c2[nH]c3ccc(Cl)cc3c2cc2c1[nH]c1ccc(Cl)cc12	0.5 (≈ 1.3 µM)	2 (≈ 5.2 µM)	2 (≈ 5.2 µM)	0.5 (≈ 1.3 µM)	4 (≈ 10.4 µM)	8 (≈ 20.8 µM)	
OC1CCN(CCCOc2c3[nH]c4ccc(F)cc4c3cc3c2[nH]c2ccc(F)cc23)C1 (centres unmarked)	0.5 (≈ 1.15 µM)	0.5 (≈ 1.15 µM)	8 (≈ 18.4 µM)	0.251 (≈ 0.576 µM)	8 (≈ 18.4 µM)	8 (≈ 18.4 µM)	
CC/N=C(/NCCCOc1c2[nH]c3ccc(Cl)cc3c2cc2c1[nH]c1ccc(Cl)cc12)NCCCN(C)C	1 (≈ 1.81 µM)	≤ 0.25	1 (≈ 1.81 µM)	1 (≈ 1.81 µM)	4 (≈ 7.23 µM)	4 (≈ 7.23 µM)	
CN(C)CC#Cc1c2[nH]c3ccc(F)cc3c2cc2c1[nH]c1ccc(F)cc12 [drawing 210]	0.25 (≈ 0.67 µM)	0.5 (≈ 1.34 µM)	2 (≈ 5.36 µM)	0.25 (≈ 0.67 µM)	8 (≈ 21.4 µM)	> 8	
CN(C)CC#Cc1c2[nH]c3ccc(F)cc3c2cc2c1[nH]c1ccc(F)cc12 [drawing 273]							10 (≈ 26.8 µM)
OC1CCN(CCCOc2c3[nH]c4ccc(Cl)cc4c3cc3c2[nH]c2ccc(Cl)cc23)CC1 [drawing 275]							10 (≈ 20.7 µM)
Fc1ccc2[nH]c3c(OCCCNC4=NCCN4)c4[nH]c5ccc(F)cc5c4cc3c2c1 [drawing 278]							10 (≈ 23.1 µM)
CN(C)CCOc1c2[nH]c3cc(F)ccc3c2cc2c1[nH]c1cc(F)ccc12	0.5 (≈ 1.32 µM)	1 (≈ 2.64 µM)	> 8	0.5 (≈ 1.32 µM)	> 8	> 8	
Fc1ccc2[nH]c3c(OC4CCCNC4)c4[nH]c5ccc(F)cc5c4cc3c2c1 (centres unmarked)	1 (≈ 2.55 µM)	0.5 (≈ 1.28 µM)	4 (≈ 10.2 µM)	0.5 (≈ 1.28 µM)	8 (≈ 20.4 µM)	> 8	
C[N+](C)(C)CCOc1c2[nH]c3ccc(F)cc3c2cc2c1[nH]c1ccc(F)cc12.[I-]	1	0.5	> 8	2	8	8	
Fc1ccc2[nH]c3c(O[C@H]4CCNC4)c4[nH]c5ccc(F)cc5c4cc3c2c1 [drawing 254]	0.25 (≈ 0.662 µM)	0.25 (≈ 0.662 µM)	1 (≈ 2.65 µM)	< 0.25	2 (≈ 5.3 µM)	4 (≈ 10.6 µM)	
Clc1ccc2[nH]c3c(OCCCNCc4c[nH]c5ccccc45)c4[nH]c5ccc(Cl)cc5c4cc3c2c1	1 (≈ 1.9 µM)	1 (≈ 1.9 µM)	2 (≈ 3.79 µM)	0.5 (≈ 0.948 µM)	> 8	> 8	
OC1CCN(CCCOc2c3[nH]c4ccc(Cl)cc4c3cc3c2[nH]c2ccc(Cl)cc23)CC1 [drawing 229]	0.25 (≈ 0.518 µM)	0.25 (≈ 0.518 µM)	2 (≈ 4.15 µM)	0.25 (≈ 0.518 µM)	8 (≈ 16.6 µM)	> 8	
CN(C)CCOc1c2[nH]c3ccc(Cl)cc3c2cc2c1[nH]c1ccc(Cl)cc12	0.25 (≈ 0.606 µM)	0.5 to 1 (≈ 1.21 to 2.43 µM)	2 (≈ 4.85 µM)	0.5 (≈ 1.21 µM)	8 (≈ 19.4 µM)	16 (≈ 38.8 µM)	
CN(C)CCOc1c2[nH]c3ccc(F)cc3c2cc2c1[nH]c1ccc(F)cc12 [drawing 272]							5 (≈ 13.2 µM)
Nc1nnn(CCCOc2c3[nH]c4ccc(Cl)cc4c3cc3c2[nH]c2ccc(Cl)cc23)n1	1 (≈ 2.14 µM)	0.5 (≈ 1.07 µM)	> 8	1 (≈ 2.14 µM)	> 8	> 8	
CN(C)CCOc1c2[nH]c3ccc(F)cc3c2cc2c1[nH]c1ccc(F)cc12 [drawing 195]	0.25 (≈ 0.659 µM)	0.5 (≈ 1.32 µM)	8 (≈ 21.1 µM)	0.5 (≈ 1.32 µM)	4 (≈ 10.5 µM)	8 (≈ 21.1 µM)	
Fc1ccc2[nH]c3c(OCCCn4cncn4)c4[nH]c5ccc(F)cc5c4cc3c2c1 [drawing 276]							> 10
